Reference: patent US12564572B2, “Topical ocular delivery of cromakalim” (QLARIS BIO, INC., priority 2022, dated 2026)

Legend:
[1] = system: patients with primary open-angle glaucoma; settings: cited from earlier work
KATP channels = settings: in the presence of ATP; cited from earlier work
rabbit eyes = settings: 0.5% cromakalim in 0.02 M phosphate buffer; cited from earlier work
Dutch Belted rabbits = experiment: 28 day repeated dose toxicology and toxicokinetic study by ocular topical administration in Dutch Belted rabbits (Example 12); settings: rabbit, in vivo, topical or ocular; for Tmax: male
Experimental: Plasma concentrations of levcromakalim were evaluated in DB rabbits after twice a day (BID) oculus uterque (OU, both eyes) topical ophthalmic (T.O.) administration of formulation 3d for 28 days at dose levels of 0, 0.012, 0.03, and 0.06 mg/eye/dose.
Plasma concentrations of levcromakalim were evaluated in DB rabbits after BID OU T.O. administration of three concentrations of formulation 3d at dose levels of 0, 0.012, 0.03, and 0.06 mg/eye/dose (0, 0.024, 0.06, and 0.12 mg/eye/day respectively or 0.030% [1.0 mM], 0.075% [2.5 mM], or 0.15% [5 mM] respectively) for 28 days. Plasma was collected from 3 animals/dose group at pre-dose, 0.5, 1, 2, 3, 4, 6, and 12 hours post-first dose on Days 1 and 28.

In the case of `CC1(C)Oc2ccc(C#N)cc2[C@@H](N2CCCC2=O)[C@@H]1OP(=O)(O)O` [QLS-101], the “Hyperemia (eye redness)” value ([1]; in vivo) is listed as “no evidence of hyperemia” and the Efficacy ([1]; patients with primary open-angle glaucoma) is listed as “positive efficacy signal”.
For `CC1(C)Oc2ccc(C#N)cc2C(N2CCCC2=O)C1O` (centres unmarked) [cromakalim], the “Increase of open-state probability (Popen) of single KATP channels” value (KATP channels) is listed as “more than 9 fold” and the “Effect on IOP after topical administration” value (rabbit eyes) is listed as “tended to increase IOP”.
For `CC1(C)Oc2ccc(C#N)cc2[C@@H](N2CCCC2=O)[C@@H]1O` [levcromakalim], the AUCtlast (Dutch Belted rabbits; female, 0.03 mg) was 3.99 ng·h/mL, the t1/2 (Dutch Belted rabbits; female, 0.06 mg) was 1.77 and the Tmax (Dutch Belted rabbits; 0.012 mg) was 70.2 min. For the same compound, the Tmax (Dutch Belted rabbits; 0.06 mg) was 42 min.
